Experimental data taken from the NIST ThermoML archive (doi:10.1016/j.jct.2018.02.022).
± gives the expanded uncertainty stated by the source.

Experiments:
[1] = 92.3 kPa, Liquid; for viscosity: Concentric cylinders viscometry; for speed of sound: Frequency=3 MHz, Single path-length method; for mass density: Vibrating tube method
[2] = xn = mol fraction of the nth substance listed; conditions: 92.3 kPa, Liquid, x2 = 0; for viscosity: Concentric cylinders viscometry; for mass density: Vibrating tube method

viscosity ([1]; 293.15 K) [mPa·s]	speed of sound ([1]; 293.15 K) [m/s]	mass density ([1]; 293.15 K) [kg/m3]	viscosity ([1]; 298.15 K) [mPa·s]	speed of sound ([1]; 298.15 K) [m/s]	viscosity ([1]; 303.15 K) [mPa·s]	speed of sound ([1]; 303.15 K) [m/s]	mass density ([1]; 303.15 K) [kg/m3]	viscosity ([1]; 308.15 K) [mPa·s]	speed of sound ([1]; 308.15 K) [m/s]	mass density ([1]; 298.15 K) [kg/m3]	mass density ([1]; 308.15 K) [kg/m3]	SMILES	viscosity ([2]; 293.15 K) [mPa·s]	mass density ([2]; 293.15 K) [kg/m3]	viscosity ([2]; 298.15 K) [mPa·s]	mass density ([2]; 298.15 K) [kg/m3]	viscosity ([2]; 303.15 K) [mPa·s]	mass density ([2]; 303.15 K) [kg/m3]	viscosity ([2]; 308.15 K) [mPa·s]	mass density ([2]; 308.15 K) [kg/m3]
20.61 ± 2.9	1666.5 ± 1.8	1113.72 ± 3	16.22 ± 2.3	1654.7 ± 1.8	13.87 ± 1.9	1642.9 ± 1.8	1106.71 ± 3	11.48 ± 1.6	1631.2 ± 1.8	–	–	OCCO [1,2-ethanediol]	–	–	–	–	–	–	–	–
1.202 ± 0.17	1160.7 ± 1.8	789.547 ± 3	1.091 ± 0.15	1143.5 ± 1.8	0.992 ± 0.14	1126.4 ± 1.8	780.941 ± 3	0.9039 ± 0.13	1109.6 ± 1.8	785.26 ± 3	776.592 ± 3	CCO [ethanol]	–	–	–	–	–	–	–	–
1408.4 ± 210	1925.5 ± 1.8	1260.73 ± 3	900.44 ± 130	1911.9 ± 1.8	593.09 ± 85	1899.6 ± 1.8	1254.48 ± 3	401.76 ± 57	1888.1 ± 1.8	1257.65 ± 3	1251.38 ± 3	OCC(O)CO [glycerol]	–	–	–	–	–	–	–	–
48.06 ± 6.7	1626.8 ± 2	1123.48 ± 3	36.88 ± 5.2	1611.6 ± 2	29.59 ± 4.1	1596.6 ± 2	1115.7 ± 3	23.72 ± 3.3	1581.7 ± 2	1119.59 ± 3	1111.81 ± 3	OCCOCCOCCO [triethylene glycol]	–	–	–	–	–	–	–	–
–	–	–	–	–	–	–	–	–	–	–	–	O [water] + CCO	1.067 ± 0.15	998.429 ± 3	0.8969 ± 0.13	997.267 ± 3	0.8385 ± 0.12	995.867 ± 3	0.7589 ± 0.11	994.252 ± 3
–	–	–	–	–	–	–	–	–	–	–	–	O [water] + OCC(O)CO	1.067 ± 0.15	998.429 ± 3	0.8969 ± 0.13	997.267 ± 3	0.8385 ± 0.12	995.867 ± 3	0.7589 ± 0.11	994.252 ± 3
–	–	–	–	–	–	–	–	–	–	–	–	O [water] + OCCO	1.067 ± 0.15	998.429 ± 3	0.8969 ± 0.13	997.267 ± 3	0.8385 ± 0.12	995.867 ± 3	0.7589 ± 0.11	994.252 ± 3
–	–	–	–	–	–	–	–	–	–	–	–	O [water] + OCCOCCO	1.067 ± 0.15	998.429 ± 3	0.8969 ± 0.13	997.267 ± 3	0.8385 ± 0.12	995.867 ± 3	0.7589 ± 0.11	994.252 ± 3
–	–	–	–	–	–	–	–	–	–	–	–	O [water] + OCCOCCOCCO	1.067 ± 0.15	998.429 ± 3	0.8969 ± 0.13	997.267 ± 3	0.8385 ± 0.12	995.867 ± 3	0.7589 ± 0.11	994.252 ± 3

SMILES	viscosity ([1]; 293.15 K) [mPa·s]	speed of sound ([1]; 293.15 K) [m/s]	mass density ([1]; 293.15 K) [kg/m3]	viscosity ([1]; 298.15 K) [mPa·s]	speed of sound ([1]; 298.15 K) [m/s]	viscosity ([1]; 303.15 K) [mPa·s]	speed of sound ([1]; 303.15 K) [m/s]	mass density ([1]; 303.15 K) [kg/m3]	viscosity ([1]; 308.15 K) [mPa·s]	speed of sound ([1]; 308.15 K) [m/s]	mass density ([1]; 298.15 K) [kg/m3]	mass density ([1]; 308.15 K) [kg/m3]	viscosity ([2]; 293.15 K) [mPa·s]	mass density ([2]; 293.15 K) [kg/m3]	viscosity ([2]; 298.15 K) [mPa·s]	mass density ([2]; 298.15 K) [kg/m3]	viscosity ([2]; 303.15 K) [mPa·s]	mass density ([2]; 303.15 K) [kg/m3]	viscosity ([2]; 308.15 K) [mPa·s]	mass density ([2]; 308.15 K) [kg/m3]
OCCOCCO [diethylene glycol]	35.89 ± 5	1591 ± 2	1116.73 ± 3	27.67 ± 3.9	1579.1 ± 2	22.48 ± 3.1	1567.2 ± 2	1109.6 ± 3	18.27 ± 2.6	1555.3 ± 2	1113.17 ± 3	1106.01 ± 3	–	–	–	–	–	–	–	–
O [water]	1.067 ± 0.15	–	998.429 ± 3	0.8969 ± 0.13	–	0.8385 ± 0.12	–	995.867 ± 3	0.7589 ± 0.11	–	997.267 ± 3	994.252 ± 3	–	–	–	–	–	–	–	–
